# Experimental data from US20180224430A1, “Method of Estimating the Incidence of In Vivo Reactions to Chemical or Biological Agents Using In Vitro Experiments” (Coyne Scientific, LLC, priority 2015, published 2018).
# Tests used:
# [1] = test system: cardiomyocytes derived from stem cells (differentiated induced pluripotent stem cells); assay: In vitro assay with Endpoint A (causally associated with cardiomyopathy) on stem-cell-derived cardiomyocytes from 100 donors; assay type: cell-based, human
# Method: An in vitro assay is then identified whose endpoint—referred to herein as Endpoint A—includes one that is causally associated with one of the cardiotoxic effects of doxorubicin: cardiomyopathy. Concentrations of doxorubicin as prescribed by the in vitro assay's protocol are prepared in a concentration that corresponds to doses of 500 mg and 600 mg administered in vivo.
# In vitro tests are conducted at these concentrations on a representative sample of cardiomyocytes derived from stem cells (the cardiomyocytes are differentiated induced pluripotent stem cells) originating from a sample of 100 donors, and then the donors are arrayed in order of ascending scores on Endpoint A.
# The “Reaction Threshold Prediction Model” is selected as the mathematical transform in their procedure. It is noted from the doxorubicin clinical cardiotoxicity data mentioned above that 12% of the clinical trial participants experienced cardiomyopathy when treated at the 500 mg dose level. Using the in vitro test results above, the Endpoint A score is determined that is associated with the 88th Percentile member of the in vitro cohort of 100 donors (88 representing 100% minus the 12% of the sample in vivo who experienced cardiomyopathy following treatment with a 500 mg dose). The Endpoint A score reads 70 units.
# Next, the in vitro assay of doxorubicin is repeated, with a concentration corresponding to a 600 mg dose administered in vivo, on a representative sample of cardiomyocytes derived from stem cells originating from a sample of 100 donors, and then the donors are arrayed in order of ascending scores on Endpoint A. This time, the Endpoint A score is detected for the donor at the 76th Percentile (76 representing 100% minus the […] of the sample in vivo who experienced cardiomyopathy following treatment with a 600 mg dose). This time, the Endpoint A score reads 65 units. […]
# [2] = cited from earlier work
smiles,measurement,setting,value
COc1cccc2c1C(=O)c1c(O)c3c(c(O)c1C2=O)C[C@@](O)(C(=O)CO)C[C@@H]3O[C@H]1C[C@H](N)[C@H](O)[C@H](C)O1 [doxorubicin],Endpoint A score,"[1]; concentration corresponding to 500 mg dose, 88th percentile member of 100 donors",70 units
same,Endpoint A score,"[1]; concentration corresponding to 600 mg dose, donor at 76th percentile of 100 donors",65 units
same,Endpoint A score approximating threshold of impact (presumed toxicity threshold),[1]; leads to incidences of cardiomyopathy in the range of 10 to 25 percent,65-70
same,clinical trial participants who experienced cardiomyopathy,[2]; 500 mg dose level,12%
same,sample in vivo who experienced cardiomyopathy,[2]; 600 mg dose,23%
